Legend:
Conditions in all cases: exposure time 48 h
[1] = system: Caenorhabditis elegans N2; experiment: AC50 for larval growth inhibition (Hill fit); higher = less potent
Method in brief: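 Synchronised C. elegans N2 L1 larvae (50 per well, 96-well plates) were grown for 48 h at 20°C in K-medium with killed OP50, 1% DMSO and 0.5–200 µM chemical. The COPAS Biosort measured each worm's size as extinction, which was log-transformed and averaged per well. AC50 came from a constrained Hill fit by weighted genetic-algorithm regression on wells with at least 10 worms. Out-of-range values are censored.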

[2] = system: Caenorhabditis elegans N2; experiment: mean nematode size ln(EXT) after 48 h, plate-adjusted (DMSO control set to 6) (ln(EXT), control-adjusted); higher = larger nematodes / less growth inhibition
Method in brief: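 Each treatment used 4–6 wells of 50 synchronised C. elegans N2 L1 larvae, kept for 48 h at 20°C in K-medium with killed OP50, 1% DMSO and 0.5–200 µM chemical. Debris was excluded by a growth model after the Biosort measured per-worm extinction. Mean size per well came from natural-logged values and was plate-adjusted. That adjustment subtracted the vehicle control mean and then added 6.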

[3] = system: Caenorhabditis elegans N2; experiment: lowest effective concentration for larval growth inhibition (size below effect threshold); higher = less potent
Method in brief: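 C. elegans N2 L1 larvae (50 per 96-well) were grown 48 h at 20°C in K-medium with killed bacteria, 1% DMSO and 0.5, 1, 5, 10, 50, 100 or 200 µM chemical. The Biosort measured per-worm extinction as size, and these were log-transformed into well means. The lowest effective concentration is the first dose where the plate-adjusted mean size drops under the 5.665 threshold and stays under it at higher doses.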

| Structure (SMILES) | AC50 for larval growth inhibition [1] | mean nematode size ln(EXT) (ln) ([2]; 0.5 µM) | mean nematode size ln(EXT) (ln) ([2]; 1 µM) | mean nematode size ln(EXT) (ln) ([2]; 5 µM) | mean nematode size ln(EXT) (ln) ([2]; 10 µM) | mean nematode size ln(EXT) (ln) ([2]; 50 µM) | mean nematode size ln(EXT) (ln) ([2]; 100 µM) | mean nematode size ln(EXT) (ln) ([2]; 200 µM) | lowest effective concentration [3] |
| --- | --- | --- | --- | --- | --- | --- | --- | --- | --- |
| CCN(CC)c1nc(C)cc(OP(=S)(OC)OC)n1 [Pirimiphos-methyl] | 124 µM | 5.93 | 5.93 | 5.83 | 5.92 | 6.01 | 6.01 | 4.12 | 200 µM |
| ClC1=C(Cl)C2(Cl)C3C(Cl)C=CC3C1(Cl)C2(Cl)Cl (centres undefined) [Heptachlor] | 6.11 µM | 5.7 | 5.98 | 5.24 | 4.13 | 4.03 | 3.97 | 3.44 | 5 µM |
| CCCCCCCCCCCCCCCS(=O)(=O)Oc1ccccc1 [C10-21 sulfonic acids phenyl esters] | 169 µM | 6.06 | 6.02 | 5.89 | 6 | 5.93 | 5.96 | 3.65 | 200 µM |
| O=C(O)c1cccc(C(=O)O)c1 [Isophthalic acid] | > 200 µM | 5.93 | 5.83 | 5.85 | 5.87 | 5.8 | 5.82 | 4.8 | 200 µM |
| O=C(OC[C@H]1O[C@@H](OC(=O)c2cc(O)c(O)c(OC(=O)c3cc(O)c(O)c(O)c3)c2)[C@H](OC(=O)c2cc(O)c(O)c(OC(=O)c3cc(O)c(O)c(O)c3)c2)[C@@H](OC(=O)c2cc(O)c(O)c(OC(=O)c3cc(O)c(O)c(O)c3)c2)[C@@H]1OC(=O)c1cc(O)c(O)c(OC(=O)c2cc(O)c(O)c(O)c2)c1)c1cc(O)c(O)c(OC(=O)c2cc(O)c(O)c(O)c2)c1 [Tannic acid] | > 200 µM | 5.95 | 5.98 | 5.96 | 5.92 | 5.86 | 5.68 | 5.34 | 200 µM |
| C[C@@H]1[C@@H](c2ccc(Cl)cc2)SC(=O)N1C(=O)NC1CCCCC1 [Hexythiazox] | 122 µM | 6.07 | 5.94 | 5.91 | 5.99 | 5.68 | 5.34 | 3.24 | 100 µM |
| O=C(NC(=O)c1c(F)cccc1F)Nc1cc(Cl)c(OC(F)(F)C(F)F)c(Cl)c1 [Hexaflumuron] | > 200 µM | 5.94 | 5.96 | 5.8 | 5.64 | 5.5 | 5.44 | 4.83 | 10 µM |
| CN(C)[C@@H]1C(=O)C(C(N)=O)=C(O)[C@@]2(O)C(=O)C3=C(O)c4c(O)cccc4[C@@](C)(O)[C@H]3C[C@@H]12 [Tetracycline] | 103 µM | 6.03 | 6.08 | 6.03 | 6.05 | 6.06 | 5.64 | 4.89 | 100 µM |
| Cn1cnc([N+](=O)[O-])c1Sc1ncnc2[nH]cnc12 [Azathioprine] | > 200 µM | 5.89 | 5.89 | 5.93 | 5.86 | 5.89 | 5.84 | 5.36 | 200 µM |
| CCCSP(=O)(OCC)Oc1ccc(Br)cc1Cl (centres undefined) [Profenofos] | 56.4 µM | 5.75 | 6.26 | 6.17 | 6.04 | 4.95 | 3.31 | 3.04 | 50 µM |
| Nc1cc(Cl)cc(C(=O)O)c1Cl [Chloramben] | > 200 µM | 5.87 | 5.9 | 5.88 | 5.9 | 5.46 | 5.58 | 5.3 | 50 µM |
| c1ccc2c(c1)ccc1ccccc12 [Phenanthrene] | 5.56 µM | 5.95 | 5.89 | 5.84 | 3.51 | 3.73 | 4.1 | 3.29 | 10 µM |
| CCCCCCCCOC(=O)c1cc(O)c(O)c(O)c1 [Octyl gallate] | 55.1 µM | 5.79 | 5.87 | 5.84 | 5.88 | 4.63 | 4.47 | 3.77 | 50 µM |
| CCCOC/C(=N\c1ccc(Cl)cc1C(F)(F)F)n1ccnc1 [Triflumizole] | 21.3 µM | 5.97 | 6.09 | 4.54 | 6.04 | 5.95 | 4.88 | 3.47 | 100 µM |
| CC(C)c1nnc2ccc(-c3ocnc3-c3cc(F)ccc3F)cn12 | > 200 µM | 5.79 | 5.88 | 5.84 | 5.82 | 5.82 | 5.79 | 5.53 | 200 µM |
| CCCCC(C#N)(Cn1cncn1)c1ccc(Cl)cc1 (centres undefined) [Myclobutanil] | > 200 µM | 5.83 | 5.77 | 5.8 | 5.86 | 5.68 | 5.55 | 4.8 | 100 µM |
